In assay [1] the target is T1, thrombin (Homo sapiens, UniProt P00734). As to the kind of experiment: Thrombin-inhibitory activity in plasma samples (ecarin-activated). To be noted: citrate plasma, ecarin activation, fluorogenic thrombin substrate; read at about 70% of maximum signal (about 12 min); in some cases means. The format is biochemical. The protocol:
To determine the inhibition of thrombin in plasma samples, plasma prothrombinase is activated by ecarin. Thrombin activity and/or its inhibition by potential inhibitors is/are then measured fluorescently by addition of a substrate.
The substances to be tested are dissolved in various concentrations in dimethyl sulphoxide and diluted with water. In white 96-well flat-bottomed plates, 20 μl of substance dilution are mixed with 20 μl of ecarin solution (ecarin reagent, from Sigma E-0504, final concentration 20 mU per reaction) in Ca buffer (200 mM Hepes+560 mM sodium chloride+10 mM calcium chloride+0.4% PEG) or with 20 μl of Ca buffer (as unstimulated control). Furthermore, 20 μl of fluorogenic thrombin substrate (from Bachem 1-1120, final concentration 50 μmol/l) and 20 μl of citrate plasma (from Octapharma) are added, and the mixture is homogenized well. The plate is measured in a SpectraFluorplus Reader using a 360 nm excitation filter and a 465 nm emission filter every minute over 20 minutes. […] Representative activity data from this test are given in Table 2 below (in some cases as means of individual determinations): […]

Assay [2] has as its target T1, thrombin. As to the kind of experiment: Measurement of the thrombin inhibition in buffer. To be noted: human thrombin 0.06 nmol/l in Tris buffer pH 7.4, 22° C., substrate Boc-Asp(OBzl)-Pro-Arg-AMC; in some cases means of individual determinations. The format is biochemical. On the procedure: To determine the thrombin inhibition of the substances listed above, a biochemical test system is constructed in which the conversion of a thrombin substrate is used for determining the enzymatic activity of human thrombin. Here, thrombin cleaves aminomethylcoumarin, which is measured fluorescently, from the peptic substrate. The determinations are carried out in microtitre plates.
Substances to be tested are dissolved in various concentrations in dimethyl sulphoxide and incubated for 15 min with human thrombin (0.06 nmol/l dissolved in 50 mmol/l of Tris buffer [C,C,C-tris(hydroxymethyl)aminomethane], 100 mmol/l of sodium chloride, 0.1% BSA [bovine serum albumin], pH 7.4) at 22° C. The substrate (5 μmol/l Boc-Asp(OBzl)-Pro-Arg-AMC from Bachem) is then added. After 30 min of incubation, the sample is excited at a wavelength of 360 nm and the emission is measured at 460 nm. The measured emissions of the test mixtures with test substance are compared to the control mixtures without test substance (only dimethyl sulphoxide instead of test substance in dimethyl sulphoxide) and IC50 values are calculated from the concentration/activity relationships. Representative activity data from this test are given in Table 1 below (in some cases as means of individual determinations): […]

Broadly, the IC50 is the concentration that gives 50% inhibition. Read a low IC50 as greater potency.

For the compound `COc1cc(C(=O)N2CC(C)OCC2C2CC(O)C2)cn2nc(NCc3cccc(Cl)c3)nc12` (single isomer, unassigned) [Example 4, {2-[(3-Chlorobenzyl)amino]-8-methoxy[1,2,4]triazolo[1,5-a]pyridin-6-yl}[5-(3-hydroxycyclobutyl)-2-methylmorpholin-4-yl]methanone], the IC50 against thrombin [1] came to 23 nM; against thrombin [2], 9.4 nM.
For `COc1cc(C(=O)N2CC(C)(CCO)OC[C@H]2C)cn2nc(NCc3cccc(Cl)c3)nc12` (single isomer, unassigned) [Example 6], in that order: 25 nM and 8.7 nM.
Consider `COc1cc(C(=O)N2CC(C)(C)OCC2(C)CO)cn2nc(NCc3cccc(Cl)c3)nc12` (single isomer, unassigned) [Example 9, {2-[(3-Chlorobenzyl)amino]-8-methoxy[1,2,4]triazolo[1,5-a]pyridin-6-yl}[5-(hydroxymethyl)-2,2,5-trimethylmorpholin-4-yl]methanone], for which the results for the IC50 at thrombin [1] and at thrombin [2] were 79 nM and 55 nM, respectively.
Consider `COc1cc(C(=O)N2CC(C)(C)OCC2(C)CO)cn2nc(NCc3cccc(Cl)c3)nc12` (single isomer, unassigned) [Example 10, {2-[(3-Chlorobenzyl)amino]-8-methoxy[1,2,4]triazolo[1,5-a]pyridin-6-yl}[5-(hydroxymethyl)-2,2,5-trimethylmorpholin-4-yl]methanone], for which the figures for the IC50 at thrombin [1] and against thrombin [2] were 41 nM and 39 nM, respectively.
The corresponding values for `COc1cc(C(=O)N2CC(C)(C)OCC2CF)cn2nc(NCc3cccc(Cl)c3)nc12` (single isomer, unassigned) [Example 14, {2-[(3-Chlorobenzyl)amino]-8-methoxy[1,2,4]triazolo[1,5-a]pyridin-6-yl}[5-(fluoromethyl)-2,2-dimethylmorpholin-4-yl]methanone] are 57 nM and 24 nM.
As to `COc1cc(C(=O)N2CC(C)OCC2CCO)cn2nc(NCc3cccc(Cl)c3)nc12` (single isomer, unassigned) [Example 16, {2-[(3-Chlorobenzyl)amino]-8-methoxy[1,2,4]triazolo[1,5-a]pyridin-6-yl}[5-(2-hydroxyethyl)-2-methylmorpholin-4-yl]methanone], the IC50 is 77 nM against thrombin [1] and 52 nM against thrombin [2].
`COc1cc(C(=O)N2CC(C)OCC2CCO)cn2nc(NCc3cccc(Cl)c3)nc12` (single isomer, unassigned) [Example 17, {2-[(3-Chlorobenzyl)amino]-8-methoxy[1,2,4]triazolo[1,5-a]pyridin-6-yl}[5-(2-hydroxyethyl)-2-methylmorpholin-4-yl]methanone]: the IC50 on thrombin [1] came to 119 nM; on thrombin [2], 95 nM.
Consider `COc1cc(C(=O)N2CC(C)OCC2CCO)cn2nc(NC(CF)c3cccc(Cl)c3)nc12` (single isomer, unassigned) [Example 18, (2-{[1-(3-Chlorophenyl)-2-fluoroethyl]amino}-8-methoxy[1,2,4]triazolo[1,5-a]pyridin-6-yl) [5-(2-hydroxyethyl)-2-methylmorpholin-4-yl]methanone], for which the results for the IC50 at thrombin [1] and against thrombin [2] were 15 nM and 27 nM, respectively.
Regarding `COc1cc(C(=O)N2CC(C)OCC2CCO)cn2nc(NC(CF)c3cccc(Cl)c3)nc12` (single isomer, unassigned) [Example 19, (2-{[1-(3-Chlorophenyl)-2-fluoroethyl]amino}-8-methoxy[1,2,4]triazolo[1,5-a]pyridin-6-yl) [5-(2-hydroxyethyl)-2-methylmorpholin-4-yl]methanone], the IC50 against thrombin [1] was 10 nM; against thrombin [2], 11 nM.
For `COc1cc(C(=O)N2CC(C)OCC23CC(O)C3)cn2nc(NCc3cccc(Cl)c3)nc12` (single isomer, unassigned) [Example 20, {2-[(3-Chlorobenzyl)amino]-8-methoxy[1,2,4]triazolo[1,5-a]pyridin-6-yl}[(cis)-2-hydroxy-7-methyl-8-oxa-5-azaspiro[3.5]non-5-yl]methanone], in that order: 70 nM and 35 nM.
Take `COc1cc(C(=O)N2CC(C)OCC23CC(O)C3)cn2nc(NCc3cccc(Cl)c3)nc12` (single isomer, unassigned) [Example 21, {2-[(3-Chlorobenzyl)amino]-8-methoxy[1,2,4]triazolo[1,5-a]pyridin-6-yl}[(trans)-2-hydroxy-7-methyl-8-oxa-5-azaspiro[3.5]non-5-yl]methanone]: the IC50 at thrombin [1] worked out at 67 nM; against thrombin [2], 43 nM.
For `COc1cc(C(=O)N2CC(C)OCC23CC(O)C3)cn2nc(NC(CF)c3cccc(Cl)c3)nc12` (single isomer, unassigned) [Example 22, (2-{[1-(3-Chlorophenyl)-2-fluoroethyl]amino}-8-methoxy[1,2,4]triazolo[1,5-a]pyridin-6-yl)[(cis)-2-hydroxy-7-methyl-8-oxa-5-azaspiro[3.5]non-5-yl]methanone], in that order: 86 nM and 26 nM.
Consider `COc1cc(C(=O)N2CC(C)OCC23CC(O)C3)cn2nc(NC(CF)c3cccc(Cl)c3)nc12` (single isomer, unassigned) [Example 23, (2-{[1-(3-Chlorophenyl)-2-fluoroethyl]amino}-8-methoxy[1,2,4]triazolo[1,5-a]pyridin-6-yl)[(cis)-2-hydroxy-7-methyl-8-oxa-5-azaspiro[3.5]non-5-yl]methanone], for which the IC50 against thrombin [1] was 34 nM; against thrombin [2], 29 nM.
As for `COc1cc(C(=O)N2CC(C)OCC23CC(O)C3)cn2nc(NC(CF)c3cccc(Cl)c3)nc12` (single isomer, unassigned) [Example 24, (2-{[1-(3-Chlorophenyl)-2-fluoroethyl]amino}-8-methoxy[1,2,4]triazolo[1,5-a]pyridin-6-yl) [(trans)-2-hydroxy-7-methyl-8-oxa-5-azaspiro[3.5]non-5-yl]methanone], the IC50 against thrombin [1] was determined as 19 nM; at thrombin [2] it was 9.9 nM.
Turning to `COc1cc(C(=O)N2CC(C)OCC23CC(O)C3)cn2nc(NC(CF)c3cccc(Cl)c3)nc12` (single isomer, unassigned) [Example 25, (2-{[1-(3-Chlorophenyl)-2-fluoroethyl]amino}-8-methoxy[1,2,4]triazolo[1,5-a]pyridin-6-yl) [(trans)-2-hydroxy-7-methyl-8-oxa-5-azaspiro[3.5]non-5-yl]methanone], the IC50 against thrombin [1] was 55 nM; on thrombin [2] it was 28 nM.
As for `COc1cc(C(=O)N2CC(C)OCC2(C)C)cn2nc(NCc3cccc(Cl)c3)nc12` (single isomer, unassigned) [Example 27], the IC50 against thrombin [1] is 56 nM; against thrombin [2] it was 62 nM.
As for `COc1cc(C(=O)N2CC(C)OCC2(C)CO)cn2nc(NCc3cccc(Cl)c3)nc12` (single isomer, unassigned) [Example 29, {2-[(3-Chlorobenzyl)amino]-8-methoxy[1,2,4]triazolo[1,5-a]pyridin-6-yl}[5-(hydroxymethyl)-2,5-dimethylmorpholin-4-yl]methanone], the IC50 against thrombin [1] amounted to 67 nM; at thrombin [2] it was 54 nM.
Take `COc1cc(C(=O)N2CC(C)OCC2(C)CO)cn2nc(NCc3cccc(Cl)c3)nc12` (single isomer, unassigned) [Example 30, {2-[(3-Chlorobenzyl)amino]-8-methoxy[1,2,4]triazolo[1,5-a]pyridin-6-yl}[5-(hydroxymethyl)-2,5-dimethylmorpholin-4-yl]methanone]: the figures for the IC50 against thrombin [1] and against thrombin [2] were 51 nM and 45 nM, respectively.

The values above are taken from US20160108039A1, “TRIAZOLOPYRIDINES AS THROMBIN INHIBITORS FOR THE TREATMENT OF THROMBOEMBOLIC DISEASES” (BAYER PHARMA AKTIENGESELLSCHAFT, priority 2013, published 2016).
